Drawing on the SangsterLogP compilation, this text covers logP for 28 compounds.

Broadly, the logP is the decadic logarithm of the partition coefficient of the neutral form, usually between octanol and water. A high value points to a more lipophilic compound.

`O=C(Oc1cc(O)c(Cl)cc1Cl)N1CCCC1` came in with a log partition coefficient (logP) of 2.98.

For the compound `O=[N+]([O-])c1ccc(Oc2ccc(C(F)(F)F)cc2Cl)cc1Oc1ccoc1`, the logP amounted to 4.33. The compound `COC(=O)c1cc(Oc2ccc(C(F)(F)F)cc2Cl)ccc1Cl` gave a logP of 5.04. In the case of `C#CCOc1cc(OC(=O)N2CCCCC2)c(Cl)cc1Cl`, the logP was 4.25. `CC(C)OC(=O)c1cc(OC(=O)N2CCCC2)c(Cl)cc1Cl` displayed a logP of 4.67. The compound `COC(=O)c1cc(Oc2ccc(C(F)(F)F)cc2Cl)ccc1[N+](=O)[O-]` had a log partition coefficient (logP) of 4.26. On to `C#CCOc1cc(OC(=O)N(CC)CC)c(Cl)cc1Cl`, for which the logP turned out to be 3.95. In the case of `O=C(Oc1ccc(Cl)cc1Cl)N1CCCC1` it was 3.94. For the compound `COC(=O)CC(C)(N=O)c1cc(Oc2ccc(C(F)(F)F)cc2Cl)ccc1[N+](=O)[O-]` (stereo not drawn), the lipophilicity (logP) was 4.54. The figure for `O=[N+]([O-])c1ccc(Oc2ccc(Cl)cc2Cl)cc1` is 4.64; for `O=[N+]([O-])c1ccc(Oc2ccc(C(F)(F)F)cc2Cl)cc1` it is 4.54; for `Cc1cccc(Oc2ccc([N+](=O)[O-])cc2)c1` it is 4.4. Turning to `COC(=O)c1cc(Oc2cc(C(F)(F)F)ccc2Cl)ccc1[N+](=O)[O-]`, the log partition coefficient (logP) was determined as 4.21. `O=C(Oc1ccccc1)N1CCCC1` displayed a lipophilicity (logP) of 2.73. Take `CCOC(=O)C(C)OC(=O)c1cc(Oc2ccc(C(F)(F)F)cc2Cl)ccc1[N+](=O)[O-]` (stereo not drawn): the logP amounted to 4.81. `C#CCOc1cc(OC(=O)N2CCC(F)(F)C2)c(Cl)cc1Cl` showed a logP of 3.42. The figure for `COC(=O)c1cc(OC(=O)N2CCCC2)c(Cl)cc1Cl` is 3.95.

As for `COC(=O)c1cc(S(=O)c2ccc(C(F)(F)F)cc2Cl)ccc1[N+](=O)[O-]` (stereo not drawn), the log partition coefficient (logP) amounted to 3.65. For the compound `COC(=O)c1cc(S(=O)(=O)c2ccc(C(F)(F)F)cc2Cl)ccc1[N+](=O)[O-]`, the log partition coefficient (logP) is 3.57. The logP values of the last two compounds are within 0.2 log units of each other. `C#CCOc1cc(OC(=O)N2CCCC2)c(Cl)cc1Cl`: the log partition coefficient (logP) came to 3.82. As to `CC(C)OC(=O)c1cc(OC(=O)N2CCCC2)c(F)cc1Cl`, the logP stood at 4.2.

In turn, `Nc1c([N+](=O)[O-])ccc(Oc2ccccc2)c1Cl` had a lipophilicity (logP) of 4.04. For `O=C(O)COC(=O)c1cc(Oc2ccc(C(F)(F)F)cc2Cl)ccc1[N+](=O)[O-]`, the lipophilicity (logP) turned out to be 4.27.

Take `C#CCOc1cc(OC(=O)N2CCC(F)(F)CC2)c(Cl)cc1Cl`: the lipophilicity (logP) was 3.57. Regarding `O=C(Oc1ccc(Cl)cc1)N1CCCC1`, the logP amounted to 3.38. `C#CCOC1=Nc2ccc(OC(=O)N3CCCC3)cc2OC1` gave a logP of 2.93. The compound `O=C(Oc1ccccc1Cl)N1CCCC1` yielded a logP of 3.13. As for `C=COC(=O)[C@@H](C)Oc1cc(Oc2ccc(C(F)(F)F)cc2Cl)ccc1[N+](=O)[O-]`, the log partition coefficient (logP) was determined as 4.54.
